We go through two compounds from US6800761B1, “Form of irbesartan, methods for obtaining said form and pharmaceutical compositions containing same” (Sanofi-Synthelabo, priority 1998, dated 2004).

The conditions of data set [1]: for packing density: Hosokawa machine, 180 gravity drops.
The conditions of data set [2]: for flowability index: Carr method: compressibility, angle of repose, spatula angle, cohesion. The procedure:
The flowability index is calculated by the Carr method (R. Carr: Chemical Engineering, Jan. 18, 1965, page 163-168) and takes into account the results of four experimental values: compressibility, angle of repose, spatula angle and cohesion.

For data set [3] the following is noted: as indicated in EP 708 103; cited from earlier work.
[4] abbreviates: brick habit versus acicular habit.

Read-outs that look alike come from different tables or passages of the source.

As for `CCCCC1=NC2(CCCC2)C(=O)N1Cc1ccc(-c2ccccc2-c2nnn[nH]2)cc1` [irbesartan crystals in the brick habit, 2-n-butyl-4-spirocyclopentane-1-[(2′-(tetrazol-5-yl)biphenyl-4-yl)methyl]-2-imidazolin-5-one], the packing density entry in data set [1] (listed as irbesartan crystals having the new crystal habit) was “about 0.5 kg m^3”. Moreover, the “increase in the packing density with respect to the acicular habit” value in data set [1] (setting [4]) is 50%. In addition, the flowability index result in data set [2] (listed as crystals of brick habit) is given as “about 30”. Further, the “increase in the flowability index with respect to the acicular habit” value in data set [2] (setting [4]) stood at 50%.

For the compound `CCCCC1=NC2(CCCC2)C(=O)N1Cc1ccc(-c2ccccc2-c2nnn[nH]2)cc1` [crystals of irbesartan in acicular form A] [2-n-butyl-4-spirocyclopentane-1-[(2′-(tetrazol-5-yl)biphenyl-4-yl)methyl]-2-imidazolin-5-one, reference compound], the “stability and hygroscopicity of the crystals” value in data set [3] is reported as “stable, non-hygroscopic”. Also, the packing density result in data set [1] (listed as crystals of the acicular form A) is on record as “about 0.35 kg/M^3”. Also, the flowability index entry in data set [2] (listed as crystals of acicular habit) was “about 10”.
